# Assay results published in patent publication US20140275280A1 (COYOTE PHARMACEUTICALS, INC., priority 2013, published 2014).
# How the values were obtained:
# [1] = test system: mild to moderate IBD following gastrectomy; experiment: Treatment of IBD in gastrectomized patients; format: in vivo; conditions: gastrectomized subjects, daily administration, 12 weeks
# Description: (§1) A pharmaceutical composition comprising GGA or a GGA derivative as described herein is prepared. A subject is diagnosed with mild to moderate IBD following gastrectomy. […] Subjects are treated for 12 weeks. Subjects keep daily diaries and record the number and nature of bowel movements. The effect of the treatments is assessed by grading clinical symptoms of fecal blood, mucus, and urgency. In addition, sigmoidoscopic assessment and biopsies are performed, and efficacy of treatment assessed, based on grading of sigmoidoscopic and degree of histological inflammation in rectal biopsy specimens. Safety is assessed based on spontaneous side effect reporting.
# [2] = test system: heterotopically transplanted hearts; experiment: Heterotopically transplanted hearts; format: in vivo, rats; conditions: 24 h after transplantation
# Description: A total of 20 donor rats are randomly divided into 2 groups. One of those receives an oral dose of GGA or a GGA derivative and one is a control group. […] The levels of HSP70 expression in donor hearts and the variation of myocardial enzymes in receptor blood or donor hearts are measured 24 h after transplantation. The donated hearts are also examined under a microscope for pathological changes. HSP70 expression is increase in the GGA-treated group.
# [3] = test system: myocardial ischemia and reperfusion; experiment: Myocardial ischemia and reperfusion injury; format: in vivo, male rats; conditions: once orally 24 h before 30 min ischemia, 4 h of reperfusion
# Description: Lactate dehydrogenase (LDH), creatine kinase (CK), malondialdehyde (MDA), superoxide dismutase (SOD) activity and infarct size are measured.
# [4] = test system: 90% hepatectomy; experiment: Acute liver damage after 90% hepatectomy; format: in vivo, Male Wister rats
# Description: Male Wister rats weighing 230-260 g are obtained. After an overnight fast, GGA or a GGA derivative (as an emulsion with 5% gum arabic and 0.004% α-tocophenol) or vehicle (5% gum arabic emulsion with 0.004% α-tocophenol) is intragastrically administrated into rats 4 h prior to the operation. After rats are anesthetized, 90% hepatectomy is performed. Briefly, the left, median, right-upper, and right-lower lobes are removed, leaving the caudate lobes, which represent 10-11% of the original liver mass. Liver specimens and blood samples are collected after laparotomy and exsanguinations under deep anesthesia immediately before (0) and 4,8, 12, and 24 h after the operation. Small pieces of liver tissue are immediately stored in an RNeasy stabilization kit (Qiagen, Hilden, Germany). Sera are immediately separated, and the activities of alanine (ALT) and aspartate (AST) aminotransferases are measured.
# [5] = test system: HL-1 cardiomyocytes; experiment: In vitro ischemia/reperfusion cardiac disease model; format: cell-based, murine; conditions: HL-1 cells, nutrient-deficiency medium with 2.5 mM hydrogen peroxide
# Description: Activity is assessed via apoptosis signaling, cell structure and energy-metabolism. The HL-1 cardiomyocytes (murine atrial tumor cell line) are maintained in monolayer culture with Claycomb-medium (Sigma, Germany), Heaving reached confluence and contractile activity, cells are maintained as subcultures. Induction of ischemia was carried out on vital cardiomyocytes at culture day four. The subconfluent, contractile HL-1 cardiomyocytes are placed in nutrient-deficiency medium containing 2.5 mM hydrogen peroxide solution in order to enhance the oxidative stress in HL-1 cells. In control cultures the medium exchange is carried out with standard supplemented Claycomb-medium. 8 h after ischemia induction samples are harvested and revitalization is induced in parallel by replacing nutrient-deficiency medium with fresh Claycomb-medium and incubating cells for another 16 hours. Cell proliferation analysis is done by flow cytometry. Apoptosis analysis is performed by terminal desoxynucleotidyl transferase-mediated dUTP nick end-labeling. Total number of cells are determined using 7-AAD nucleus staining. Additionally formaldehyde-fixed cells on glass coverslips are prepared for immuncytochemical staining.
# [6] = test system: IEC-18 cells; experiment: Protection of intestinal epithelial cells from NH2Cl-induced injury; format: cell-based, Rat; conditions: pretreatment
# Description: Cell viability is assessed, and endogenous HSP70 levels are determined by enzyme-linked immunosorbent assay in IEC-18 cells.
# [7] = test system: human hepatoma (Bel-7402) cells; experiment: Acetaminophen-induced hepatotoxicity cytotoxicity assay with S9 mixture; format: cell-based; conditions: cytotoxic concentration of acetaminophen, vs control conditions
# Description: In order to test the protective activity of GGA and GGA derivatives from acetaminophen-induced hepatotoxicity, a cytotoxicity assay is employed using human hepatoma (Bel-7402) cells in the presence of S9 mixture. Cell viability and mitochondrial permeability transition (MPT) is assessed in the presence or absence of GGA or GGA derivatives in combination with a cytotoxic concentration of acetaminophen.
# [8] = test system: mild to moderate IBD; experiment: Treatment of inflammatory bowel disease (IBD) in subjects; format: in vivo; conditions: daily administration, 12 weeks
# Description: as §1, with “IBD.” for “IBD following gastrectomy.”
# [9] = test system: DSS-induced colitis; experiment: Dextran sulfate sodium (DSS)-induced colitis; format: in vivo, BALB/c mice
# Description: BALB/c mice are given 3% DSS solution orally for 7 days to induce colitis. The disease activity of colitis is assessed clinically every day, and histology in the colon is evaluated at 7 days post-DSS. The levels of myeloperoxidase (MPO) activity, tumor necrosis factor (TNF)-alpha and interferon (IFN)-gamma in the colon tissues are also examined. In addition, expression of HSPs 25, 40, 70 and 90 in the colon tissue is determined by Western blot analysis or ELISA. GGA or a GGA derivative is administered orally to mice when treatment of DSS is initiated.
# [10] = single oral administration 4 h prior to operation, vs vehicle
smiles,measurement,setting,value
"CC(=O)CC/C=C(\C)CC/C=C(\C)CC/C=C(\C)CCC=C(C)C [GGA, Geranylgeranyl acetone]",efficacy in inflammatory bowel disease (treating the condition and maintaining remission),[1],demonstrate efficacy
same,Lactate dehydrogenase concentration in receptor blood,[2]; vs control group,decreased
same,atriphosphate concentration,[2]; vs control group,higher
same,creatine kinase muscle band concentration in receptor blood,[2]; vs control group,decreased
same,malondialdehyde concentration,[2]; vs control group,lower
same,HSP70 expression in donor hearts,[2]; oral dose to donor 24 h before transplantation,increase
same,decrease in SOD levels,[3],significantly inhibits
same,increase in MDA levels,[3],significantly inhibits
same,infarct size,[3],significantly reduces
same,level of CK,[3],significantly reduces
same,level of LDH,[3],significantly reduces
same,"chaperone induction in liver (gene expression and immunoblot): HSP70, HSP27, BIP",[4]; after 90% hepatectomy,"induce an endoplasmic reticulum chaperone, BIP"
same,"release of aminotransferases (ALT, AST)",[4]; [10],significantly suppresses
same,survival,[4]; [10],improves survival
same,ischemia induced apoptosis (TUNEL),[5],reduce ischemia induced apoptosis
same,ischemia-induced reduction of cell proliferation,[5],rescue ischemia-induced reduction of cell proliferation
same,HSP70 levels (ELISA),[6],rapidly elevates HSP70 levels
same,protection against NH2Cl-induced injury (cell viability),[6],protects against NH2Cl-induced injury
same,cell viability,[7],increased cell viability
same,efficacy in inflammatory bowel disease (treating the condition and maintaining remission),[8],demonstrate efficacy
same,expression of HSP70 in the colon,[9]; mice given DSS,enhances
same,clinical severity of colitis,"[9]; oral, 3% DSS for 7 days",significantly reduces
same,level of IFN-gamma in the colon,"[9]; oral, 3% DSS for 7 days",suppresses
same,level of MPO activity in the colon,"[9]; oral, 3% DSS for 7 days",suppresses
same,level of TNF-alpha in the colon,"[9]; oral, 3% DSS for 7 days",suppresses
